Measured values as given in PMC7730235, “Discovery of a Novel Class of Covalent Dual Inhibitors Targeting the Protein Kinases BMX and BTK” (International Journal of Molecular Sciences, 2020).

Legend:
[1] = target: T1, JAK2 (Homo sapiens, UniProt O60674); assay: Radiometric kinase assay (Reaction Biology HotSpot); type: biochemical; conditions: five-dose singlicate, [ATP] = 10 μM
T1 construct: purchased Reaction Biology Corporation
Description: (§1) If not mentioned differently, in vitro profiling of compounds was performed at Reaction Biology Corporation using the HotSpot™ assay platform.

[2] = target: T2, BMX (Homo sapiens, UniProt P51813); assay: as above; type: biochemical; conditions: [ATP] = 10 μM; for remaining activity at 0.2 µM: 200 nM compound, duplicate mean, read-out: Residual Activity @ 200 nM, BMX; for IC50: radiometric HotSpot, five-dose singlicate
T2 construct: purchased Reaction Biology Corporation
T2 sequence (P51813 1-675): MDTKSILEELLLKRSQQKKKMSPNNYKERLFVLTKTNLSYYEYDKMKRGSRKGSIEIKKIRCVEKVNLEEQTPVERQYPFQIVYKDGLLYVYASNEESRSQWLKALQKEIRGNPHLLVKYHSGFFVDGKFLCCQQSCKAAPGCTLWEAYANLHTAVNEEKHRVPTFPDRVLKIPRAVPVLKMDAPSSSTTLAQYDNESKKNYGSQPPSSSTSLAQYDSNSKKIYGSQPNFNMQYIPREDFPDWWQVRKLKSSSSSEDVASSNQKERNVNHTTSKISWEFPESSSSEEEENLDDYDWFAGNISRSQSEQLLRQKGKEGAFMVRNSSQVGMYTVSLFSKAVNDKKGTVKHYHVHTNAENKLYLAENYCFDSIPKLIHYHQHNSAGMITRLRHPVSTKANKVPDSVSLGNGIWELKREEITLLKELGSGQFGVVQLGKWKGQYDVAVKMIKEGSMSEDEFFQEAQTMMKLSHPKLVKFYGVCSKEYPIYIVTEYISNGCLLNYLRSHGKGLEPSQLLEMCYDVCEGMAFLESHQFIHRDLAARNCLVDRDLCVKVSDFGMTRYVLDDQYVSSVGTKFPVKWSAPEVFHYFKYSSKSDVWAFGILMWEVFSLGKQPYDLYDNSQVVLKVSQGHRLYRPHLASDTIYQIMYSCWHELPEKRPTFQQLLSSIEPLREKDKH
Description: as §1

[3] = target: T3, HER2 (Homo sapiens, UniProt P04626); assay: as above; type: biochemical; conditions: [ATP] = 10 μM; for remaining activity at 0.2 µM: 200 nM compound, duplicate mean, read-out: Residual Activity @ 200 nM, HER2
T3 construct: purchased Reaction Biology Corporation
Description: as §1

[4] = target: T4, TYK2 (Homo sapiens, UniProt P29597); assay: as above; type: biochemical; conditions: five-dose singlicate, [ATP] = 10 μM
T4 construct: purchased Reaction Biology Corporation
Description: as §1

[5] = target: T5, JAK1 (Homo sapiens, UniProt P23458); assay: as above; type: biochemical; conditions: five-dose singlicate, [ATP] = 10 μM
T5 construct: purchased Reaction Biology Corporation
Description: as §1

[6] = target: T6, EGFR (Homo sapiens, UniProt P00533); assay: as above; type: biochemical; conditions: [ATP] = 10 μM; for remaining activity at 0.2 µM: 200 nM compound, duplicate mean, read-out: Residual Activity @ 200 nM, EGFR; for IC50: radiometric HotSpot, five-dose singlicate
T6 construct: purchased Reaction Biology Corporation
Description: as §1

[7] = target: T7, HER4 (Homo sapiens, UniProt Q15303); assay: as above; type: biochemical; conditions: [ATP] = 10 μM; for remaining activity at 0.2 µM: 200 nM compound, duplicate mean, read-out: Residual Activity @ 200 nM, HER4
T7 construct: purchased Reaction Biology Corporation
Description: as §1

[8] = target: T8, BLK (Homo sapiens, UniProt P51451); assay: as above; type: biochemical; conditions: [ATP] = 10 μM; for remaining activity at 0.2 µM: 200 nM compound, duplicate mean, read-out: Residual Activity @ 200 nM, BLK
T8 construct: purchased Reaction Biology Corporation
Description: as §1

[9] = target: T9, kinase domain of BMX (Homo sapiens, UniProt P51813); assay: Mass spectrometric investigation of covalent binding to BMX (ESI-TOF); conditions: 4 °C; for BMX covalent adduct fraction, 30 min / BMX covalent adduct fraction, 60 min / BMX covalent adduct fraction, 120 min / BMX covalent adduct fraction, 240 min / native (unmodified) BMX fraction, 30 min / native (unmodified) BMX fraction, 60 min / native (unmodified) BMX fraction, 120 min / native (unmodified) BMX fraction, 240 min: 1.5-fold molar excess of inhibitor; for covalent labeling of BMX (in words): complete labeling refers to 30 min
T9 construct: The kinase domains of JAK3 and BMX at 2 μM
Description: The kinase domain of BMX was diluted to 0.05 mM with buffer containing 20 mM Tris pH 8.0, 200 mM NaCl, 0.5 mM TCEP (pH 7.0) and was subsequently mixed with 0.075 mM inhibitors (ratio of protein to inhibitor of 1:1.5). The mixture was incubated at 4°C. The samples were taken at different time points, the reaction stopped by diluting the sample with a 200-fold excess of 1% formic acid. The denatured protein and the adducts were assessed using electrospray time-of-flight (ESI-TOF) mass spectrometry.

[10] = system: kinases harboring an αD-1 cysteine; assay: Profiling at 200 nM against kinases with an αD-1 cysteine; type: biochemical; conditions: 200 nM compound
Description: as §1

[11] = system: glutathione (GSH); assay: Glutathione reactivity / stability against GSH; type: physicochemical; conditions: glutathione (GSH) in PBS buffer, pH 7.4, 5 mM GSH, read-out: half-life (t1/2) against glutathione (converted)
Description: A total of 5 µL of a 10 mM compound stock solution in DMSO were added to 5 µL of a 4 mM Indoprofen solution in PBS as internal standard. The mixture was diluted with PBS buffer to a total volume of 1 mL of component A. Additionally, a freshly prepared solution of 10 mM GSH in PBS buffer was used as component B. A total of 250 µL of each component was mixed and immediately subjected to HPLC analysis for t^0 measurement. The probes were stored at 40 °C in between the respective injections. t1/2 was determined by plotting natural logarithm of AUC/AUC0 against time.

[12] = radiometric HotSpot, five-dose singlicate

T8 sequence (P51451 whole entry): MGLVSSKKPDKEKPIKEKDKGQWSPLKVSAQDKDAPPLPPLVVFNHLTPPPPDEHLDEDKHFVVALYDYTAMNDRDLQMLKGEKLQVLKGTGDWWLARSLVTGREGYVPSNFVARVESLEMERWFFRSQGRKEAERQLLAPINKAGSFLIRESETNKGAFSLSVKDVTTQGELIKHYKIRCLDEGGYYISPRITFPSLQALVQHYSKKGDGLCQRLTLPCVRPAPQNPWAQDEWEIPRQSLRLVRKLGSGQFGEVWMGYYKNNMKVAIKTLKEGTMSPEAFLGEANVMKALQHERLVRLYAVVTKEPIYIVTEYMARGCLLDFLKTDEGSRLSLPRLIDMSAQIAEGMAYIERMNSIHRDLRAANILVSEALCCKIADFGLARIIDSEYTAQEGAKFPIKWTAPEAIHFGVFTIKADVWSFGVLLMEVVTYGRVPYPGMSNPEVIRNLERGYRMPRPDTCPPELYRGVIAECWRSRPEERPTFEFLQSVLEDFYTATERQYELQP
T7 sequence (Q15303 26-1308): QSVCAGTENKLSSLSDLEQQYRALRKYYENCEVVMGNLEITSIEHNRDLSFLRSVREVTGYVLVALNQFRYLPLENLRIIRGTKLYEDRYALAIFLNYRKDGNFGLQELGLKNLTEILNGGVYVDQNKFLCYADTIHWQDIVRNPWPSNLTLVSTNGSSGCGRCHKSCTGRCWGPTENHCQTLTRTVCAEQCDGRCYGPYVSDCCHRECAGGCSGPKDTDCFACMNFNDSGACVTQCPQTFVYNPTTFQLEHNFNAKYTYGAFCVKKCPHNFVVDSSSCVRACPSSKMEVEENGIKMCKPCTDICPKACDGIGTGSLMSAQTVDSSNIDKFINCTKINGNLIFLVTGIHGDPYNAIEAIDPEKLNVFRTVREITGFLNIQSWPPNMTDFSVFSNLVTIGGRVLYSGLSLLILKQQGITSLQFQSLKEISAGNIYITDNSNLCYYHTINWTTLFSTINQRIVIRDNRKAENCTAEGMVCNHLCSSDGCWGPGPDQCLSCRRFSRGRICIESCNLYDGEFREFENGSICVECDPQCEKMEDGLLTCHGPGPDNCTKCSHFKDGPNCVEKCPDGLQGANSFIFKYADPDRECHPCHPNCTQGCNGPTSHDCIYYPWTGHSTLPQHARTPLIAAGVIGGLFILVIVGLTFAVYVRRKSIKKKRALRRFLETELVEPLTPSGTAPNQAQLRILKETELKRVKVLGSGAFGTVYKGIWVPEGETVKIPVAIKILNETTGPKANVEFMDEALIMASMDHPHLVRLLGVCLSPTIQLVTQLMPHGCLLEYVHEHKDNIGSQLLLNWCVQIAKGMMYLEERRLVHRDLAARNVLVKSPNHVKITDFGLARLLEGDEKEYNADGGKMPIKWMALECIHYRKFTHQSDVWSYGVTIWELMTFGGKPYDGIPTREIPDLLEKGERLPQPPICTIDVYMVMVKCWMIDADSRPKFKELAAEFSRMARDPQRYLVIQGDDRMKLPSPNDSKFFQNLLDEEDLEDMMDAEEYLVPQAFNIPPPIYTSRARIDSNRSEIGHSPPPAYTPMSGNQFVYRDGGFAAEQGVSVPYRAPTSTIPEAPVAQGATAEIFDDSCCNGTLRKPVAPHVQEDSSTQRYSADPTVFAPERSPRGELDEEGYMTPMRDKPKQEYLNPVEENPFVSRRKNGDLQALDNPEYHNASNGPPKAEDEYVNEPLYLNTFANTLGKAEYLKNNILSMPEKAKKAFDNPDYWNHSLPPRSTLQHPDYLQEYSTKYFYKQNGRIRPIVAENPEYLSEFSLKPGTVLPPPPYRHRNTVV
T3 sequence (P04626 23-1255): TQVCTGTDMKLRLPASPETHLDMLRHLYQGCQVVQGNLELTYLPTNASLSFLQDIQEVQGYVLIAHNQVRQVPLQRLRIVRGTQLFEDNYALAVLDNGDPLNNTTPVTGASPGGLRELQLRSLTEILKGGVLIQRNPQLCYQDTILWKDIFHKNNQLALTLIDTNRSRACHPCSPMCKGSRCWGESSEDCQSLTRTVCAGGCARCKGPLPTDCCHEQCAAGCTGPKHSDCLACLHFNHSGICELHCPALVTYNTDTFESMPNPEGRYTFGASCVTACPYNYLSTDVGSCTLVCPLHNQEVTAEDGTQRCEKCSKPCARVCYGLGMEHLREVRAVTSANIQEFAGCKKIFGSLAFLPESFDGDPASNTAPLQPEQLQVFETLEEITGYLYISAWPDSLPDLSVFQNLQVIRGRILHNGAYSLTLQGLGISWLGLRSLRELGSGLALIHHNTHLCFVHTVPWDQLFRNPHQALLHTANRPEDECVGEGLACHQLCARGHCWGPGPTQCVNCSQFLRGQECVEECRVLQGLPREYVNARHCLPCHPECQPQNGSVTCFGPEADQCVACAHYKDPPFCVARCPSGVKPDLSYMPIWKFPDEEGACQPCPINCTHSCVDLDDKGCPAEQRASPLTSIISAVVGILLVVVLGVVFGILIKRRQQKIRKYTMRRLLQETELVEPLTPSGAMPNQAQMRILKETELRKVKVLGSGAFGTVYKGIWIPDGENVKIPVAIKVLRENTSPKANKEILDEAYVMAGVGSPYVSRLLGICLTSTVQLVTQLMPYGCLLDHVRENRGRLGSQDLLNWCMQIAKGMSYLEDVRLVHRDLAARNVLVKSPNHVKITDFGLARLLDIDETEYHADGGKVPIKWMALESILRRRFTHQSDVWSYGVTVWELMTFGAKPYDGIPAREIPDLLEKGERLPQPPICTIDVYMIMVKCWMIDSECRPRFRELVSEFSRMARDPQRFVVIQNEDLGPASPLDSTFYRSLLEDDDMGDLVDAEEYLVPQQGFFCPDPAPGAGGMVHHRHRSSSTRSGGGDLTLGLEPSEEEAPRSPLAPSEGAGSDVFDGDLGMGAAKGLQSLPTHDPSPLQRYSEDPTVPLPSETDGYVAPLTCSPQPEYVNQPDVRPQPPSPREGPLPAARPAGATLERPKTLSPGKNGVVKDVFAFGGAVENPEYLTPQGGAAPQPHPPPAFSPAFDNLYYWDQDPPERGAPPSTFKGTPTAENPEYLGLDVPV
T6 sequence (P00533 25-1210): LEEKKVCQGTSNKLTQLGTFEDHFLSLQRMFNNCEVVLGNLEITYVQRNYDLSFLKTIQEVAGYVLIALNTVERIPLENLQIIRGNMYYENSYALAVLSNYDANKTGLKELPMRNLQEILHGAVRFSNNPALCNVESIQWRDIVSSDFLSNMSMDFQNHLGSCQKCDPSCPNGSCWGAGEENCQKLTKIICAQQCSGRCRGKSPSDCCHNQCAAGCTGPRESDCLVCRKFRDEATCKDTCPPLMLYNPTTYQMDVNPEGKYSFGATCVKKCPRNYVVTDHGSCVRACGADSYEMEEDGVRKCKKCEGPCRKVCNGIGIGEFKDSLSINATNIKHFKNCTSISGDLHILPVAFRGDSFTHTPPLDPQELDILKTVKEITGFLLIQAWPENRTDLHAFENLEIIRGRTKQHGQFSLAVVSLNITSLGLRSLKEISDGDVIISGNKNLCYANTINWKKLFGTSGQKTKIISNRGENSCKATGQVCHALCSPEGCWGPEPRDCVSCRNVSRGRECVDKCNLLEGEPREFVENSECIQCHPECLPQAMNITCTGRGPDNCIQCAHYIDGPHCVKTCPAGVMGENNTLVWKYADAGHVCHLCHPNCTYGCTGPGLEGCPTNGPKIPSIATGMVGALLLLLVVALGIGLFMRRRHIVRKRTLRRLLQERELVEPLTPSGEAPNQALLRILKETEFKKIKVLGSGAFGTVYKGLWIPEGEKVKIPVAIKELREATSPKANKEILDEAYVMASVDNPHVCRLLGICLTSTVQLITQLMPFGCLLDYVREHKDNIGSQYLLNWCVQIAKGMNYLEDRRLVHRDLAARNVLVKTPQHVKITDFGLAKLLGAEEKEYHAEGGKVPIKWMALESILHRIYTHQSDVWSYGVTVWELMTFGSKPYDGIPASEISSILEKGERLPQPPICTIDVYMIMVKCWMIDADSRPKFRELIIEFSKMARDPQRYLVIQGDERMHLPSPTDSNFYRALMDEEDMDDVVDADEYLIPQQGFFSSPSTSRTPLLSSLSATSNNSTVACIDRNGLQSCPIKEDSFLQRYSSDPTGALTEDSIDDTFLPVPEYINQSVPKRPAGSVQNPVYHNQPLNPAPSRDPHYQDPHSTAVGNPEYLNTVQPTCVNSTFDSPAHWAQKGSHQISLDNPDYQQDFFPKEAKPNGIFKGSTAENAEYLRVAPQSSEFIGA

IC50 [1] [nM]	remaining activity at 0.2 µM [2] [%]	remaining activity at 0.2 µM [3] [%]	IC50 [4] [nM]	IC50 [5] [nM]	remaining activity at 0.2 µM [6] [%]	IC50 [6] [nM]	remaining activity at 0.2 µM [7] [%]	remaining activity at 0.2 µM [8] [%]	BMX covalent adduct fraction, 30 min [9] [%]	BMX covalent adduct fraction, 60 min [9] [%]	BMX covalent adduct fraction, 120 min [9] [%]	BMX covalent adduct fraction, 240 min [9] [%]	covalent labeling of BMX (in words) ([9]; 1.5-fold molar excess)	IC50 [2] [nM]	native (unmodified) BMX fraction, 30 min [9] [%]	native (unmodified) BMX fraction, 60 min [9] [%]	native (unmodified) BMX fraction, 120 min [9] [%]	native (unmodified) BMX fraction, 240 min [9] [%]	Compound	also measured
3580	2.7	95	5540	2970	> 100	5250	66.1	95.8	100	100	100	100	complete labeling						C=CC(=O)Nc1cccc(-c2c[nH]c3ncccc23)c1 [Compound 9a, N-(3-(1H-pyrrolo[2,3-b]pyridin-3-yl)phenyl)acrylamide]	
1120	1.6	97	1900	460	95.5	> 10000	66.6	82.4	99	100	100	100	complete labeling	29					C=CC(=O)Nc1cccc(-c2c[nH]c3ncc(C(N)=O)cc23)c1 [Compound 10a, 3-(3-acrylamidophenyl)-1H-pyrrolo[2,3-b]pyridine-5-carboxamide]	
									60	67	89	97		539	40	33	11	3	C=CC(=O)Nc1cccc(-c2c[nH]c3ncc(C(=O)NC4CCCC4)cc23)c1 [Compound 11a, 3-(3-acrylamidophenyl)-N-cyclopentyl-1H-pyrrolo[2,3-b]pyridine-5-carboxamide]	activity at 200 nM on kinases harboring an αD-1 cysteine [10]: did not show substantial activity; exposure required to approach full target modification ([9]; 1.5-fold molar excess): 240 min
		> 100			> 100		95.4	95.1					no modification was detectable	582	100	100	100	100	CCC(=O)Nc1cccc(-c2c[nH]c3ncc(NC(=O)C4CCCC4)cc23)c1 [Compound 12b, N-(3-(3-propionamidophenyl)-1H-pyrrolo[2,3-b]pyridin-5-yl)cyclopentanecarboxamide]	
		41.1			14.9	12	4.7	8.6	100	100	100	100	complete labeling						C=CC(=O)Nc1cccc(-c2c[nH]c3ncc(NC(=O)c4cccs4)cc23)c1 [Compound 12c, N-(3-(3-acrylamidophenyl)-1H-pyrrolo[2,3-b]pyridin-5-yl)thiophene-2-carboxamide]	half-life at 25 µM [11]: 9.98 h; IC50 [3, 12]: 118 nM; IC50 [7, 12]: 8.5 nM; IC50 [8, 12]: 30 nM
